Like-named read-outs stand apart in the source and are kept apart here.
How the values were obtained:
[1] = test system: Cord blood-derived CD34+ cells; assay: Proliferation of typical CD34+ cell culture with or without TGF-β inhibitor and PPAR-α agonist (cumulative cell number); type: cell-based, human
Method: HSCs were cultured for one to three days in a medium containing StemSpan SFEM (Stemcell Technologies) with 6 IU/ml EPO (Calbiochem, San Diego, CA), 100 ng/ml SCF (R&D Systems, Minneapolis, MN), and 10 ng/ml IL-3 (R&D Systems). Then, 5×10^4 cells were transduced with the virus concentrated in the above culture medium and polybrenc (8 μg/ml, Sigma). The multiplicity of infection (MOI) of the virus during transduction was calculated to be 15 to 30. 24 hours after the transduction, the medium was replaced with a fresh virus-free medium, and from day 5 of culture, the StemSpan SFEM medium was supplemented with 3 IU/ml EPO, 50 ng/ml SCF, 10^−6 M dexamethasone, and 250 nM TGF-β inhibitor (LY2157299, PeproTech, Rocky Hill, NJ), 10 μM PPAR-α agonist (GW7647, Sigma), and 1 μg/ml doxycycline (Takara Bio Inc.) to induce selective expression of HPV16 E6/E7 in the transduced cells. The efficiency of transduction was confirmed on day 7 of culture through GFP fluorescence expression of GFP-transduced cells, and the cells were maintained at a concentration of 2 to 3×10^5 cells/ml while replacing the medium with a fresh medium every two to three days. In addition, to obtain the cell proliferation and survival rate, the cells were stained with trypan blue (Gibco) and counted. […]

[2] = test system: Cord blood-derived CD34+ cells; assay: Flow cytometry of CD71 marker: proportion of immature erythroblasts; type: cell-based, human; settings: day 17, flow cytometry
Method: The following antibodies were used: glycophorin A (GPA; CD235a)-FITC (Life Technologies Inc., Gaithersburg, MD); and CD71-PE (BioLegend Inc., San Diego, CA). The cells were washed with 0.1% BSA, then antibodies were added and stained for 15 minutes at 4° C., while blocking light. In addition, a fluorescence microscope (Nikon Eclipse Ti; Nikon Corporation) was used to confirm the GFP fluorescence expressed in the cells cultured in the plate.
There is an TGF-β inhibitor (LY2157299) which is known to be effective in the maintenance and proliferation of immature erythroblasts, and a PPAR-α agonist (GW7647) that may have a synergistic effect on the proliferation of immature erythroblasts with glucocorticoid was explored, and an experiment was performed on the effects of the two substances. First, the two substances were added to a typical CD34+ cell culture under different conditions and cultured. In terms of cell proliferation, the cells proliferated the most by 1,500-fold by day 15 of culture when the culture was performed by adding the two substances together, and the cells proliferated by 1,000-fold by day 13 of culture in the experimental group where only the TGF-β inhibitor was added. […]

Excerpt for E6/E7-transduced cells: Some of the cells in culture were spread on a slide using a cell centrifuge (Cellspin; Hanil Science Industrial Co. Ltd., Incheon, Korea) and stained with a Wright-Giemsa stain (Sigma), and the state, shape, and maturity of the cells were confirmed in a blind manner. Cell photos were taken using an optical microscope (Nikon Eclipse TE2000-U; Nikon Corporation).
In addition, the immature erythroblast marker CD71 was attached to the proliferating cells, and the proportion of immature erythroblasts was confirmed through flow cytometry.

Structure (SMILES): CC(C)(Sc1ccc(CCN(CCCCC2CCCCC2)C(=O)NC2CCCCC2)cc1)C(=O)O [PPAR-α agonist, GW7647]
- proliferation rate ([1]; day not given): 500 fold
- proportion of immature erythroblasts (CD71) [2]: 53%

Structure (SMILES): Cc1cccc(-c2nn3c(c2-c2ccnc4ccc(C(N)=O)cc24)CCC3)n1 [TGF-β inhibitor, LY2157299]
- cell proliferation ([1]; by day 13 of culture): 1,000 fold
- immature erythroblasts, % of all cells (E6/E7-transduced cells; day 28 of culture): 26.7%
- immature erythroblasts, % of all cells (E6/E7-transduced cells; day 33 of culture): 15.2%

Reference: patent US20250027045A1, “ESTABLISHMENT OF ERYTHROID PRECURSOR CELL LINE CAPABLE OF CONDITIONAL MATURATION USING GENE OVEREXPRESSION” (IUCF-HYU (INDUSTRY-UNIVERSITY COOPERATION FOUNDATION …, priority 2021, published 2025)
